Results: PMC3044687, “The C-Terminal Domain of the Arabinosyltransferase Mycobacterium tuberculosis EmbC Is a Lectin-Like Carbohydrate Binding Module” (PLoS Pathogens, 2011)

How the values were obtained:
[1] = target: EmbC^CT (C-terminal domain of M. tuberculosis EmbC, residues 719–1094) (Mycobacterium tuberculosis, UniProt P9WNL5); assay: Solution binding assay by intrinsic tryptophan fluorescence, wild-type EmbC^CT; details: wild-type EmbC^CT 20 µM, 50 mM KH2PO4 pH 7.9, 300 mM NaCl; single site saturation fit
Description: Intrinsic tryptophan fluorescence (ITF) experiments were carried out using a PTI QuantaMaster 40 spectrofluorimeter, recording data with the FeliX32 software package (PTI, Birmingham, New Jersey, USA). The excitation wavelength was set to 294 nm and the fluorescence emission (Femission) was recorded between 300–400 nm for each ligand aliquot added to a 200 µl solution containing 20 µM EmbC^CT in 50 mM KH2PO4 (pH 7.9), 300 mM NaCl. […] The change in fluorescence emission (ΔFemission) was calculated by subtracting Femission (recorded 2 min after each ligand addition) from Femission^max, and the data was then plotted against ligand concentration, [L] (3 independent experiments). A plot of ΔFemission at λ = 338 nm vs. [L] was fitted to the saturation binding equation using GraphPad Prism software: [drawing 1]

[2] = tested on: Araf transferase (isolated mycobacterial membranes); details: incubated with [14C]-labelled Araf-donor DPA and isolated mycobacterial membranes; cited from earlier work

Chain of EmbC^CT (C-terminal domain of M. tuberculosis EmbC, residues 719–1094) (P9WNL5 719-1094 limits assumed): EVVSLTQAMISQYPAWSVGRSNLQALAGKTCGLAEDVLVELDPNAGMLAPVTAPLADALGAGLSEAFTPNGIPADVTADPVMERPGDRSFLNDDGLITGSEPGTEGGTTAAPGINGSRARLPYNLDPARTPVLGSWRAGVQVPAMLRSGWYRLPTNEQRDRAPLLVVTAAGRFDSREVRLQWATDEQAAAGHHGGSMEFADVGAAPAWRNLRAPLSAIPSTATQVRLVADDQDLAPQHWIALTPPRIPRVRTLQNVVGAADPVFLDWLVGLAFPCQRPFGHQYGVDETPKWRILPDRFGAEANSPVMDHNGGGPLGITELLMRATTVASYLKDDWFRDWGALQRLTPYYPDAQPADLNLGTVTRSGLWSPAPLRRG

| Compound | Fmax [1] | Kd [1] [µM] | acceptor activity (in words) [2] |
| --- | --- | --- | --- |
| CCCCCCCCO[C@H]1O[C@H](CO[C@H]2O[C@H](CO[C@H]3O[C@H](CO)[C@@H](O)[C@@H]3O)[C@@H](O)[C@@H]2O)[C@@H](O)[C@@H]1O [Ara(1→5)2Ara-O-C8, [α-D-Araf-(1→5)]2-α-D-Araf-O-(CH2)7CH3] | 0.105 | 25.3 | – |
| CCCCCCCCO[C@H]1O[C@H](CO[C@H]2O[C@H](CO[C@H]3O[C@H](CO[C@H]4O[C@H](CO[C@H]5O[C@H](CO)[C@@H](O)[C@@H]5O)[C@@H](O)[C@@H]4O)[C@@H](O)[C@@H]3O)[C@@H](O)[C@@H]2O)[C@@H](O)[C@@H]1O [Ara(1→5)4Ara-O-C8, [α-D-Araf-(1→5)]4-α-D-Araf-O-(CH2)7CH3] | 0.157 | – | – |
| CO[C@H]1O[C@H](CO[C@H]2O[C@H](CO)[C@@H](O)[C@@H]2O)[C@@H](O)[C@@H]1O [Ara(1→5)Ara-O-C1, α-D-Araf-(1→5)-α-D-Araf-O-CH3] | 0.26 | 11 | – |
| CCCCCCCCO[C@H]1O[C@H](CO[C@H]2O[C@H](CO)[C@@H](O)[C@@H]2O)[C@@H](O)[C@@H]1O [Ara(1→5)Ara-O-C8, α-D-Araf-(1→5)-α-D-Araf-O-(CH2)7CH3] | 0.22 | – | potent acceptor mimics |
